Test [1] in a line: Inhibition of HIV1 gp41-induced cell-cell fusion between viral envelope expressing human HL2/3 cells to CD4/CCR5 receptor expressing TZM-bl cells after 6 hrs by luciferase assay.
In test [2] the target is Envelope glycoprotein gp160 (Human immunodeficiency virus 1, UniProt Q6QLK5). Nature of the test: Inhibition of HIV1 gp41-induced cell-cell fusion between viral envelope expressing human HL2/3 cells to CD4/CCR5 receptor expressing TZM-bl cells after 6 hrs by luciferase assay.
Sequence of Envelope glycoprotein gp160 (Q6QLK5 whole entry, the tested form may be a part): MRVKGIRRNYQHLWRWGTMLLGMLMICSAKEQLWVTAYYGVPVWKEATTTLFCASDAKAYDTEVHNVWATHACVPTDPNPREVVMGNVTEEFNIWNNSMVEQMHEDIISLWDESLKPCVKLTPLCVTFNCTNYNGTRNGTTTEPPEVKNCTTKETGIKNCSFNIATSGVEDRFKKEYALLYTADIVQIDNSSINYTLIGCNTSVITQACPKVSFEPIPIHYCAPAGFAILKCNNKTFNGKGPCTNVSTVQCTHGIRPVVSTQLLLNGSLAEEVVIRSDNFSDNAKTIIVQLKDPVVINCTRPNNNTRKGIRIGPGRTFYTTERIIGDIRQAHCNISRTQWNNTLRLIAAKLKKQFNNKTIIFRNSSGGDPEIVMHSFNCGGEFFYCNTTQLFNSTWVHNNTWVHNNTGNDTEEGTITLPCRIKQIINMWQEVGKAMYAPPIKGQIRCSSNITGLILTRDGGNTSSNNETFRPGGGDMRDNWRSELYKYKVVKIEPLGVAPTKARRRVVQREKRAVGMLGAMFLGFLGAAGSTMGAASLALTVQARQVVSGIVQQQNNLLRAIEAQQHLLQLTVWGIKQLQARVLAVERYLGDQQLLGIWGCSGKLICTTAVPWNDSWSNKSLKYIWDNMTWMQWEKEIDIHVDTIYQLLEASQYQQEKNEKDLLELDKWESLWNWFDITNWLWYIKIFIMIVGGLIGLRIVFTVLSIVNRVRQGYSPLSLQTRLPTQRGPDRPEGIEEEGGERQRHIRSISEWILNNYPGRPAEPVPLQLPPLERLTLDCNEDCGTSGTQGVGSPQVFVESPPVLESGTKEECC
A short description of test [3]: Inhibition of HIV1 gp41-induced cell-cell fusion between viral envelope expressing human HL2/3 cells to CD4/CCR5 receptor expressing TZM-bl cells at 4:1 compound to HP23 ratio incubated for 6 hrs by luciferase reporter gene assay. For orientation: A reporter such as luciferase makes a cellular process visible.
Test [4] is described as follows: Inhibition of HIV1 gp41-induced cell-cell fusion between viral envelope expressing human HL2/3 cells to CD4/CCR5 receptor expressing TZM-bl cells at 4:1 ratio of hCS6ERE to compound incubated for 6 hrs by luciferase reporter gene assay.
Test [5] is described as follows: Inhibition of HIV1 gp41-induced cell-cell fusion between viral envelope expressing human HL2/3 cells to CD4/CCR5 receptor expressing TZM-bl cells at 2:1 ratio of hCS6ERE to compound incubated for 6 hrs by luciferase reporter gene assay.
Test [6] in a line: Inhibition of HIV1 gp41-induced cell-cell fusion between viral envelope expressing human HL2/3 cells to CD4/CCR5 receptor expressing TZM-bl cells at 1:1 ratio of hCS6ERE to compound incubated for 6 hrs by luciferase reporter gene assay.

13 compounds from BindingDB's records for doi:10.1021/acs.jmedchem.9b00882 (Shenyang Pharmaceutical University, 2019) can be followed below.

pEC50: −log10 of the molar value. Starred links: 1 amine or outer side, 2 acyl side, 3 side chain; linkers in the order of their positions; H or OH if unused. Positions of bridges follow the written chain, without caps; N, C: chain ends. Non-standard residues stand in square brackets, D forms with d. Residues, ends and D or L forms follow the SMILES beside them. ξ: configuration not given here. mXylylene = c1cc(C[*:1])cc(C[*:2])c1; ξhCys = NC(CCS)C(=O)O

The term pEC50 denotes −log10 of the EC50, conventionally taken in molar units. As to `CC[C@H](C)[C@H](NC(C)=O)C(=O)N[C@H]1CSCc2cccc(c2)CSC[C@@H](C(=O)N[C@@H](C)C(=O)N[C@@H](C)C(=O)N[C@@H](CCC(N)=O)C(=O)N[C@@H](CCC(=O)O)C(=O)N[C@@H](CCC(N)=O)C(=O)N[C@@H](CCC(N)=O)C(=O)N[C@@H](CCC(=O)O)C(=O)N[C@@H](CCCCN)C(=O)N[C@@H](CC(N)=O)C(=O)N[C@@H](CCC(=O)O)C(=O)N[C@@H](C)C(=O)N[C@@H](C)C(=O)N[C@@H](CC(C)C)C(=O)N[C@@H](CCCNC(=N)N)C(=O)N[C@@H](CCC(=O)O)C(=O)N[C@@H](CC(C)C)C(N)=O)NC(=O)[C@H]([C@@H](C)CC)NC(=O)[C@H](CC(C)C)NC(=O)[C@H](C)NC1=O` (Ac-ICALICAAQEQQEKNEAALREL-NH2; linker 2-6 via mXylylene), the pEC50 in test [1] was 6.83. On the same count and under the same terms, to `CC[C@H](C)[C@H](NC(C)=O)C(=O)N[C@@H](CCC(=O)O)C(=O)N[C@@H](C)C(=O)N[C@@H](CC(C)C)C(=O)N[C@H](C(=O)N[C@H]1CSCc2cccc(c2)CSC[C@@H](C(=O)N[C@@H](CCC(N)=O)C(=O)N[C@@H](CCC(N)=O)C(=O)N[C@@H](CCC(=O)O)C(=O)N[C@@H](CCCCN)C(=O)N[C@@H](CC(N)=O)C(=O)N[C@@H](CCC(=O)O)C(=O)N[C@@H](C)C(=O)N[C@@H](C)C(=O)N[C@@H](CC(C)C)C(=O)N[C@@H](CCCNC(=N)N)C(=O)N[C@@H](CCC(=O)O)C(=O)N[C@@H](CC(C)C)C(N)=O)NC(=O)[C@H](CCC(N)=O)NC(=O)[C@H](C)NC(=O)[C@H](C)NC1=O)[C@@H](C)CC` (Ac-IEALICAAQCQQEKNEAALREL-NH2; linker 6-10 via mXylylene) belongs 7.02; to `CC[C@H](C)[C@H](NC(C)=O)C(=O)N[C@@H](CCC(=O)O)C(=O)N[C@@H](C)C(=O)N[C@@H](CC(C)C)C(=O)N[C@H](C(=O)N[C@@H](CCCNC(=N)N)C(=O)N[C@@H](C)C(=O)N[C@@H](C)C(=O)N[C@H]1CSCc2cccc(c2)CSC[C@@H](C(=O)N[C@@H](CCCCN)C(=O)N[C@@H](CC(N)=O)C(=O)N[C@@H](CCC(=O)O)C(=O)N[C@@H](C)C(=O)N[C@@H](C)C(=O)N[C@@H](CC(C)C)C(=O)N[C@@H](CCCNC(=N)N)C(=O)N[C@@H](CCC(=O)O)C(=O)N[C@@H](CC(C)C)C(N)=O)NC(=O)[C@H](CCC(N)=O)NC(=O)[C@H](CCC(N)=O)NC(=O)[C@H](CCC(=O)O)NC1=O)[C@@H](C)CC` (Ac-IEALIRAACEQQCKNEAALREL-NH2; linker 9-13 via mXylylene), 6.67; to `CC[C@H](C)[C@H](NC(C)=O)C(=O)N[C@@H](CCC(=O)O)C(=O)N[C@@H](C)C(=O)N[C@@H](CC(C)C)C(=O)N[C@H](C(=O)N[C@@H](CCCNC(=N)N)C(=O)N[C@@H](C)C(=O)N[C@@H](C)C(=O)N[C@@H](CCC(N)=O)C(=O)N[C@H]1CSCc2cccc(c2)CSC[C@@H](C(=O)N[C@@H](CC(N)=O)C(=O)N[C@@H](CCC(=O)O)C(=O)N[C@@H](C)C(=O)N[C@@H](C)C(=O)N[C@@H](CC(C)C)C(=O)N[C@@H](CCCNC(=N)N)C(=O)N[C@@H](CCC(=O)O)C(=O)N[C@@H](CC(C)C)C(N)=O)NC(=O)[C@H](CCC(=O)O)NC(=O)[C@H](CCC(N)=O)NC(=O)[C@H](CCC(N)=O)NC1=O)[C@@H](C)CC` (Ac-IEALIRAAQCQQECNEAALREL-NH2; linker 10-14 via mXylylene), 6.77. Compound `CC[C@H](C)[C@H](NC(C)=O)C(=O)N[C@@H](CCC(=O)O)C(=O)N[C@@H](C)C(=O)N[C@@H](CC(C)C)C(=O)N[C@H](C(=O)N[C@@H](CCCNC(=N)N)C(=O)N[C@@H](C)C(=O)N[C@@H](C)C(=O)N[C@@H](CCC(N)=O)C(=O)N[C@@H](CCC(=O)O)C(=O)N[C@@H](CCC(N)=O)C(=O)N[C@@H](CCC(N)=O)C(=O)N[C@H]1CSCc2cccc(c2)CSC[C@@H](C(=O)N[C@@H](C)C(=O)N[C@@H](CC(C)C)C(=O)N[C@@H](CCCNC(=N)N)C(=O)N[C@@H](CCC(=O)O)C(=O)N[C@@H](CC(C)C)C(N)=O)NC(=O)[C@H](CCC(=O)O)NC(=O)[C@H](CC(N)=O)NC(=O)[C@H](CCCCN)NC1=O)[C@@H](C)CC` (Ac-IEALIRAAQEQQCKNECALREL-NH2; linker 13-17 via mXylylene) showed a pEC50 in test [1] of 6.88. The same measure, in the same setting: as for `CC[C@H](C)[C@H](NC(C)=O)C(=O)N[C@@H](CCC(=O)O)C(=O)N[C@@H](C)C(=O)N[C@@H](CC(C)C)C(=O)N[C@H](C(=O)N[C@@H](CCCNC(=N)N)C(=O)N[C@@H](C)C(=O)N[C@@H](C)C(=O)N[C@@H](CCC(N)=O)C(=O)N[C@@H](CCC(=O)O)C(=O)N[C@@H](CCC(N)=O)C(=O)N[C@@H](CCC(N)=O)C(=O)N[C@@H](CCC(=O)O)C(=O)N[C@@H](CCCCN)C(=O)N[C@@H](CC(N)=O)C(=O)N[C@H]1CSCc2cccc(c2)CSC[C@@H](C(=O)N[C@@H](CCC(=O)O)C(=O)N[C@@H](CC(C)C)C(N)=O)NC(=O)[C@H](CC(C)C)NC(=O)[C@H](C)NC(=O)[C@H](C)NC1=O)[C@@H](C)CC` (Ac-IEALIRAAQEQQEKNCAALCEL-NH2; linker 16-20 via mXylylene), the figure is 6.78; as for `CC[C@H](C)[C@H](NC(C)=O)C(=O)N[C@@H](CCC(=O)O)C(=O)N[C@@H](C)C(=O)N[C@@H](CC(C)C)C(=O)N[C@H](C(=O)N[C@@H](CCCNC(=N)N)C(=O)N[C@@H](C)C(=O)N[C@@H](C)C(=O)N[C@@H](CCC(N)=O)C(=O)N[C@@H](CCC(=O)O)C(=O)N[C@@H](CCC(N)=O)C(=O)N[C@@H](CCC(N)=O)C(=O)N[C@@H](CCC(=O)O)C(=O)N[C@@H](CCCCN)C(=O)N[C@@H](CC(N)=O)C(=O)N[C@@H](CCC(=O)O)C(=O)N[C@H]1CSCc2cccc(c2)CSC[C@@H](C(=O)N[C@@H](CC(C)C)C(N)=O)NC(=O)[C@H](CCCNC(=N)N)NC(=O)[C@H](CC(C)C)NC(=O)[C@H](C)NC1=O)[C@@H](C)CC` (Ac-IEALIRAAQEQQEKNECALRCL-NH2; linker 17-21 via mXylylene), 6.91. Same read-out and setting: as for `CC[C@H](C)[C@H](NC(C)=O)C(=O)N[C@@H](CCC(=O)O)C(=O)N[C@@H](C)C(=O)N[C@@H](CC(C)C)C(=O)N[C@H](C(=O)NC1CCSCc2cccc(c2)CSCCC(C(=O)N[C@@H](CCC(N)=O)C(=O)N[C@@H](CCC(N)=O)C(=O)N[C@@H](CCC(=O)O)C(=O)N[C@@H](CCCCN)C(=O)N[C@@H](CC(N)=O)C(=O)N[C@@H](CCC(=O)O)C(=O)N[C@@H](C)C(=O)N[C@@H](C)C(=O)N[C@@H](CC(C)C)C(=O)N[C@@H](CCCNC(=N)N)C(=O)N[C@@H](CCC(=O)O)C(=O)N[C@@H](CC(C)C)C(N)=O)NC(=O)[C@H](CCC(N)=O)NC(=O)[C@H](C)NC(=O)[C@H](C)NC1=O)[C@@H](C)CC` (some centres not stated) (Ac-IEALI[ξhCys]AAQ[ξhCys]QQEKNEAALREL-NH2; linker 6-10 via mXylylene), the figure is 7.47.

Compound `CC[C@H](C)[C@H](NC(C)=O)C(=O)N[C@@H](CCC(=O)O)C(=O)N[C@@H](C)C(=O)N[C@@H](CC(C)C)C(=O)N[C@H](C(=O)NC1CCSCc2cccc(c2)CSCCC(C(=O)N[C@@H](CCC(N)=O)C(=O)N[C@@H](CCC(N)=O)C(=O)N[C@@H](CCCNC(=N)N)C(=O)N[C@@H](CCCCN)C(=O)N[C@@H](CC(N)=O)C(=O)N[C@@H](CCC(=O)O)C(=O)N[C@@H](CCC(=O)O)C(=O)N[C@@H](C)C(=O)N[C@@H](CC(C)C)C(=O)N[C@@H](CCCNC(=N)N)C(=O)N[C@@H](CCC(=O)O)C(=O)N[C@@H](CC(C)C)C(N)=O)NC(=O)[C@H](CCC(N)=O)NC(=O)[C@H](C)NC(=O)[C@H](C)NC1=O)[C@@H](C)CC` (some centres not stated) (Ac-IEALI[ξhCys]AAQ[ξhCys]QQRKNEEALREL-NH2; linker 6-10 via mXylylene) showed a pEC50 in test [1] of 7.66. On the same count and under the same terms, to `CC[C@H](C)[C@H](NC(C)=O)C(=O)N[C@@H](CCC(=O)O)C(=O)N[C@H]1CSCc2cccc(c2)CSC[C@@H](C(=O)N[C@@H](C)C(=O)N[C@@H](CCC(N)=O)C(=O)N[C@@H](CCC(=O)O)C(=O)N[C@@H](CCC(N)=O)C(=O)N[C@@H](CCC(N)=O)C(=O)N[C@@H](CCC(=O)O)C(=O)N[C@@H](CCCCN)C(=O)N[C@@H](CC(N)=O)C(=O)N[C@@H](CCC(=O)O)C(=O)N[C@@H](C)C(=O)N[C@@H](C)C(=O)N[C@@H](CC(C)C)C(=O)N[C@@H](CCCNC(=N)N)C(=O)N[C@@H](CCC(=O)O)C(=O)N[C@@H](CC(C)C)C(N)=O)NC(=O)[C@H](CCCNC(=N)N)NC(=O)[C@H]([C@@H](C)CC)NC(=O)[C@H](CC(C)C)NC1=O` (Ac-IECLIRCAQEQQEKNEAALREL-NH2; linker 3-7 via mXylylene) belongs 6.87. Regarding `CC[C@H](C)[C@H](NC(C)=O)C(=O)N[C@@H](CCC(=O)O)C(=O)N[C@@H](CCC(=O)O)C(=O)N[C@@H](CC(C)C)C(=O)N[C@H](C(=O)NC1CCSCc2cccc(c2)CSCCC(C(=O)N[C@@H](CCC(N)=O)C(=O)N[C@@H](CCC(N)=O)C(=O)N[C@@H](CCCNC(=N)N)C(=O)N[C@@H](CCCCN)C(=O)N[C@@H](CC(N)=O)C(=O)N[C@@H](CCC(=O)O)C(=O)N[C@@H](CCC(=O)O)C(=O)N[C@@H](C)C(=O)N[C@@H](CC(C)C)C(=O)N[C@@H](CCCNC(=N)N)C(=O)N[C@@H](CCC(=O)O)C(=O)N[C@@H](CC(C)C)C(N)=O)NC(=O)[C@H](CCC(N)=O)NC(=O)[C@H](C)NC(=O)[C@H](C)NC1=O)[C@@H](C)CC` (some centres not stated) (Ac-IEELI[ξhCys]AAQ[ξhCys]QQRKNEEALREL-NH2; linker 6-10 via mXylylene), the figures for the pEC50 in test [2] and in test [3] were 8.14 and 8.15, respectively. With Ac-IEALIRAAQEQQEKNEAALREL-NH2, in test [1], the pEC50 is 6.90. Turning to H-EMTWEEWEKKIEEYTKKIEEILK-OH, the pEC50 in test [1] was 7.96; in test [4], 8.77; in test [5], 8.28; in test [6] it was 7.96.
